Source: patent US6368788B1 (priority 1987, dated 2002)
Read-outs that look alike come from different tables or passages of the source.

Legend:
[1] = tested on: peripheral blood lymphocytes; assay: Protocol A3 Group 2: pyoderma in patients with SLE; format: in vivo, human
Source text: Group 2 constituted 22 patients with diagnosed forms of systemic lupus erythematosus (SLE): ie., 14 males and 8 females ranging in age from 21 to 62 years of age. The time since presentation with a diagnosis of SLE in this patient population ranged from several months to 18 years. All SLE patients in this trial had dermal manifestations of lupus erythematosus that included discoid disseminated forms of the disease. All patients had experienced chronic and recurrent episodes of pyoderma, and all had previously received conventional therapy, including use of antibiotics, delagil, and external corticosteroid ointments without effect. Patients in Group 2 were randomly divided into two treatment groups, the first consisting of 13 patients (9 men and 4 women) treated with L-Glu-L-Trp according to Therapy A, below, and the second consisting of 9 patients (5 men and 4 women) treated (as a control) according to Therapy B, ie., conventional therapeutic methods using anti-malarial preparations and vasoactive agents according to standard dosages and schedules.
In treatment Protocol A, all patients received L-Glu-L-Trp in combination with antibiotics. […]
Local antibiotics were administered as follows: Ampicillin (4), oxacillin (4), Levomycetin (1), tetracycline (9), Rondomycin (2), deoxycycline (8), cephalexin (2), and Rifampicin (1).

[2] = Post-term women (Protocol D); design: species or system human; conditions: in vivo
Method: Nineteen patients (19 women) post-term were treated with L-Glu-L-Trp and 48 women received conventional post-term treatment as a control group.

[3] = Group 2 pyoderma in SLE, after L-Glu-L-Trp Therapy (n = 13)
[4] = After Combination L-Glu-L-Trp Therapy
[5] = After L-Glu-L-Trp Combination Therapy
[6] = Following Stage 2, Abscess and indurative acne
[7] = Following Stage 2, Chronic abscess pyoderma
[8] = Following Stage 2, Papular-pustular acne
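Wherever ATIII is given: hospitalized children with severe pneumonia, thrombohemorrhagic syndrome plus secondary immune deficiency, lab values taken before and after treatment versus healthy normal controls, comparison group given antibiotic therapy alone.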
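Wherever Clotting time (citrated whole blood-recalcified) is given: hospitalized children with severe pneumonia, thrombohemorrhagic syndrome plus secondary immune deficiency, lab values taken before and after treatment versus healthy normal controls, comparison group given antibiotic therapy alone.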
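Wherever FDP is given: hospitalized children with severe pneumonia, thrombohemorrhagic syndrome plus secondary immune deficiency, lab values taken before and after treatment versus healthy normal controls, comparison group given antibiotic therapy alone.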
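Wherever Fibrinogen Concentration is given: hospitalized children with severe pneumonia, thrombohemorrhagic syndrome plus secondary immune deficiency, lab values taken before and after treatment versus healthy normal controls, comparison group given antibiotic therapy alone.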

L-Glu-L-Trp
B-Lymphocytes [1, 3]: 0.16 ± 0.01 ×10^9/L
B-Lymphocytes % Normal Value [1, 3]: (52%)
B-Lymphocytes (%) [1, 3]: 6.8 ± 0.9%
Basophils (%) [1, 3]: 0.1 ± 0.1%
Blast Transformation, Con-A [1, 3]: 64.1 ± 6.5 % of PBL
Blast Transformation, PHA [1, 3]: 47.4 ± 3.5 % of PBL
Eosinophils (%) [1, 3]: 2.2 ± 0.1%
Erythrocytes [1, 3]: 4.7 ± 0.1 10^12/L
IgA [1, 3]: 2.85 ± 0.32 g/L
IgA % Normal Value [1, 3]: (150%)
IgG [1, 3]: 14.8 ± 1.27 g/L
IgG % Normal Value [1, 3]: (137%)
IgM [1, 3]: 0.92 ± 0.12 g/L
IgM % Normal Value [1, 3]: (58%)
Leukocytes [1, 3]: 5.74 ± 0.12 ×10^9/L
Leukocytes % Normal Value [1, 3]: (86%)
Lymphocytes [1, 3]: 2.17 ± 0.21 ×10^9/L
Lymphocytes % Normal Value [1, 3]: (78%)
Lymphocytes, % [1, 3]: 36.4 ± 2.3%
Monocytes, % [1, 3]: 8.0 ± 0.7%
Neutrophils [1, 3]: 3.5 ± 0.7 ×10^9/L
Neutrophils, % [1, 3]: 55.3 ± 4.2%
Neutrophils, % Normal Value [1, 3]: (106%)
T-Lymphocytes [1, 3]: 1.13 ± 0.07 ×10^9/L
T-Lymphocytes % Normal Value [1, 3]: (66%)
T-Lymphocytes (%) [1, 3]: 44.3 ± 2.7%
T-helper [1, 3]: 0.87 ± 0.12 ×10^9/L
T-helper % Normal Value [1, 3]: (66%)
T-helper (%) [1, 3]: 26.5 ± 2.7%
T-suppressor [1, 3]: 0.53 ± 0.03 ×10^9/L
T-suppressor % Normal Value [1, 3]: (136%)
T-suppressor (%) [1, 3]: 21.2 ± 3.7%
Clinical outcome ([1]; human, in vivo): leads to a positive clinical effect and resolution of dermal rashes
Clinical outcome [2]: resulting in a normal delivery
B-Lymphocytes [4]: 0.84 ± 0.06 ×10^9/L
B-Lymphocytes % Normal Value [4]: (175%)
IgA [4]: 67 ± 4.8
IgA % Normal Value [4]: (163%)
IgG [4]: 138 ± 5.6
IgG % Normal Value [4]: (97%)
IgM [4]: 153 ± 6.9
IgM % Normal Value [4]: (89%)
Leukocytes [4]: 11.0 ± 0.01 ×10^9/L
Leukocytes % Normal Value [4]: (98%)
Lymphocytes [4]: 0.36 ± 0.01 ×10^9/L
Lymphocytes % Normal Value [4]: (116%)
T-Lymphocytes [4]: 1.1 ± 0.01 ×10^9/L
T-Lymphocytes % Normal Value [4]: (167%)
ATIII [5]: 85 ± 2.1 % of normal
Clotting time (citrated whole blood-recalcified) [5]: 129 ± 2.3^
FDP [5]: 96 ± 6.7 µg/mL
Fibrinogen Concentration [5]: 4.2 ± 0.4 g/L
Fibrinolytic Activity [5]: 186 ± 11.5 min
Hagemann factor dependent fibrinolysis [5]: 72 ± 6.8
Kaolin-Cephalin clotting time [5]: 58 ± 1.2
Prothrombin time [5]: 22 ± 0.1
Thrombotest [5]: 33 ± 1.2
Whole blood clotting time [5]: 465 ± 16.2 s
Blast Transformation, Con-A (Staphylococci; After L-Glu-L-Trp Therapy): 58.3 ± 3.9%
Blast Transformation, HSA (Staphylococci; After L-Glu-L-Trp Therapy): 84.9 ± 5.5%
Blast Transformation, PHA (Staphylococci; After L-Glu-L-Trp Therapy): 40.2 ± 3.9%
Number of Patients with Clinical Result: Improved (Staphylococci; [6]): 1
Number of Patients with Clinical Result: Recovered (Staphylococci; [6]): 4
Number of Patients with Clinical Result: Significantly Improved (Staphylococci; [6]): 1
Number of Patients with Clinical Result: Recovered (Staphylococci; [7]): 5
Number of Patients with Clinical Result: Significantly Improved (Staphylococci; [7]): 2
Number of Patients with Clinical Result: Recovered (Staphylococci; Following Stage 2, Chronic furunculitis): 10
Number of Patients with Clinical Result: Recovered (Staphylococci; Following Stage 2, Chronic relapsing folliculitis gravis): 1
Number of Patients with Clinical Result: Recovered (Staphylococci; Following Stage 2, Chronic relapsing osteofolliculitis): 3
Number of Patients with Clinical Result: Significantly Improved (Staphylococci; Following Stage 2, Chronic ulcerative pyoderma): 2
Number of Patients with Clinical Result: Recovered (Staphylococci; [8]): 4
Number of Patients with Clinical Result: Significantly Improved (Staphylococci; [8]): 3
Number of Patients with Clinical Result: Improved (Staphylococci; Following Stage 2, Totals): 1
Number of Patients with Clinical Result: No Effect (Staphylococci; Following Stage 2, Totals): 0
Number of Patients with Clinical Result: Recovered (Staphylococci; Following Stage 2, Totals): 27
Number of Patients with Clinical Result: Significantly Improved (Staphylococci; Following Stage 2, Totals): 8
Number of Patients with Clinical Result: Worse (Staphylococci; Following Stage 2, Totals): 0
B-Lymphocytes (Staphylococci; L-Glu-L-Trp Treatment (n = 36)): 0.28 ± 0.04 ×10^9/L
B-Lymphocytes % Normal Value (Staphylococci; L-Glu-L-Trp Treatment (n = 36)): (57%)
B-Lymphocytes (%) (Staphylococci; L-Glu-L-Trp Treatment (n = 36)): 12.1 ± 1.5%
C3 (Staphylococci; L-Glu-L-Trp Treatment (n = 36)): 0.77 ± 0.02 g/L
C3, % Normal Value (Staphylococci; L-Glu-L-Trp Treatment (n = 36)): (92%)
Erythrocyte Sed. Rate (Staphylococci; L-Glu-L-Trp Treatment (n = 36)): 1.2 ± 1.4 mm
IgA (Staphylococci; L-Glu-L-Trp Treatment (n = 36)): 2.40 ± 0.18 g/L
IgA % Normal Value (Staphylococci; L-Glu-L-Trp Treatment (n = 36)): (126%)
IgG (Staphylococci; L-Glu-L-Trp Treatment (n = 36)): 15.5 ± 0.73 g/L
IgG % Normal Value (Staphylococci; L-Glu-L-Trp Treatment (n = 36)): (135%)
IgM (Staphylococci; L-Glu-L-Trp Treatment (n = 36)): 1.25 ± 0.12 g/L
IgM % Normal Value (Staphylococci; L-Glu-L-Trp Treatment (n = 36)): (109%)
Imm. Cmplx. (Staphylococci; L-Glu-L-Trp Treatment (n = 36)): 45.9 ± 4.9 Units
Leukocytes (Staphylococci; L-Glu-L-Trp Treatment (n = 36)): 7.75 ± 0.33 ×10^9/L
Leukocytes % Normal Value (Staphylococci; L-Glu-L-Trp Treatment (n = 36)): (115%)
Lymphocytes (Staphylococci; L-Glu-L-Trp Treatment (n = 36)): 2.41 ± 0.14 ×10^9/L
Lymphocytes % Normal Value (Staphylococci; L-Glu-L-Trp Treatment (n = 36)): (120%)
Lymphocytes, % (Staphylococci; L-Glu-L-Trp Treatment (n = 36)): 30.8 ± 1.4%
Monocytes (Staphylococci; L-Glu-L-Trp Treatment (n = 36)): 0.43 ± 0.04 ×10^9/L
Monocytes, % (Staphylococci; L-Glu-L-Trp Treatment (n = 36)): 5.65 ± 0.40%
Monocytes, % Normal Value (Staphylococci; L-Glu-L-Trp Treatment (n = 36)): (78%)
NK activity (Staphylococci; L-Glu-L-Trp Treatment (n = 36)): 45.18 ± 2.55 % cytotox.
Neutrophils (Staphylococci; L-Glu-L-Trp Treatment (n = 36)): 4.54 ± 0.25 10^9/L
Neutrophils, % (Staphylococci; L-Glu-L-Trp Treatment (n = 36)): 59.8 ± 1.5%
Neutrophils, % Normal Value (Staphylococci; L-Glu-L-Trp Treatment (n = 36)): (103%)
Phag. Index (Staphylococci; L-Glu-L-Trp Treatment (n = 36)): 5.31 ± 0.20
Phagocytic Cells (Staphylococci; L-Glu-L-Trp Treatment (n = 36)): 2.36 ± 0.27 ×10^9/L
Phagocytic Cells, % Normal Value (Staphylococci; L-Glu-L-Trp Treatment (n = 36)): (89%)
Surface Ig + B-Lym (Staphylococci; L-Glu-L-Trp Treatment (n = 36)): 0.34 ± 0.05 ×10^9/L
Surface Ig + B-Lym, % (Staphylococci; L-Glu-L-Trp Treatment (n = 36)): 16.9 ± 1.7%
Surface Ig + B-Lym, % Normal Value (Staphylococci; L-Glu-L-Trp Treatment (n = 36)): (117%)
T4^+/T8^+ Ratio (Staphylococci; L-Glu-L-Trp Treatment (n = 36)): 1.32 ± 0.11
T-Lymphocytes (Staphylococci; L-Glu-L-Trp Treatment (n = 36)): 1.68 ± 0.12 ×10^9/L
T-Lymphocytes % Normal Value (Staphylococci; L-Glu-L-Trp Treatment (n = 36)): (99%)
T-Lymphocytes (%) (Staphylococci; L-Glu-L-Trp Treatment (n = 36)): 69.3 ± 1.9 %
T-helper % Normal Value (Staphylococci; L-Glu-L-Trp Treatment (n = 36)): (71%)
T-helper (OKT4+) (Staphylococci; L-Glu-L-Trp Treatment (n = 36)): 0.46 ± 0.05 ×10^9/L
T-helper (OKT4+) % (Staphylococci; L-Glu-L-Trp Treatment (n = 36)): 20.3 ± 2.9%
T-suppressor % Normal Value (Staphylococci; L-Glu-L-Trp Treatment (n = 36)): (95%)
T-suppressor (OKT8+) (Staphylococci; L-Glu-L-Trp Treatment (n = 36)): 0.39 ± 0.04 ×10^9/L
T-suppressor (OKT8+) % (Staphylococci; L-Glu-L-Trp Treatment (n = 36)): 17.1 ± 1.9%
T-lymphocytes, T4+ lymphocytes, T4+/T8+ ratio and NK activity relative to normal healthy volunteers (Staphylococci; after treatment): > 70%
Patients with considerable (significant) improvement (Staphylococci; combination therapy): 8
Patients with improvement (Staphylococci; combination therapy): 1
Patients with clinical (complete) recovery (Staphylococci; combination therapy, 36 patients): 27
Surface IgG+ lymphocytes (Staphylococci; following Stage 2): 0.19±0.023 ×10^9/L
Patients with clinically manifested increased antibiotic sensitivity in vivo (Staphylococci; in vivo): 55-75%
Clinical recovery, papulous pustular acne (Staphylococci; of 7 patients): 4
Complete clinical recovery, chronic abscessing pyoderma (Staphylococci; of 7 patients): 5
Clinical recovery, abscessing and indurative acne (Staphylococci; of 10 patients): 6
